Consider five compounds from ChEMBL document CHEMBL1201862, “PubChem BioAssay data set” (2004).

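Exposure lasted 48 hours, with cells grown in 96-well plates and compounds tested at five concentrations. GI50: concentration for 50% inhibition of growth.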 Activity calls are given as the source filed them. Rule as the data show it: active = GI50 up to about 1.1 µM and inactive = higher.

Holding throughout (test): inhibition of tumour cell growth, NCI panel, 48 h
Test [1] has as its system HL-60.
Test [2] deals with COLO 205.
In test [3] the test system is HCT-15.
For test [4], the system named is DU-145.
Test [5] concerns RPMI-8226.
For test [6], the system named is MCF7.
Test [7] relates to SNB-19.
For test [8], the system named is Malme-3M.
Test [9] concerns M14.
Test [10] has as its system OVCAR-4.
Test [11] concerns NCI-H226.
Test [12] concerns IGROV-1.
For test [13], the system named is 786-0.
Test [14] relates to CAKI-1.
Test [15] has as its system HT-29.
Test [16] concerns TK-10.
Test [17] deals with EKVX.
For test [18], the system named is CCRF-CEM.
Test [19] deals with NCI-H460.
Test [20] relates to OVCAR-3.

On to `NC(=S)N/N=C\c1nccc2ccccc12`, for which the GI50 is 327 nM (active) in test [1]; 302 nM (active) in [2]; 369 nM in test [3]; 404 nM (active) in test [4]; 267 nM (active) in test [5]; 253 nM (active) in [6]. Besides, the GI50 is 531 nM (active) in test [7]; 1730 nM (inactive) in test [8]; 383 nM (active) in test [9]; 309 nM (active) in [10]; 184 nM (active) in [11]; 420 nM (active) in [12]. The GI50 in [13] was 290 nM (active); in test [14] it was 330 nM (active); in test [15] it was 485 nM (active); in test [16] it was 551 nM (active); in [17] it was 302 nM (active); in test [18], 270 nM (active). For the same compound, the GI50 in test [19] was 267 nM (active); in [20], 281 nM (active).
For `O=C1C=C(c2ccccc2)OC1C1Sc2ccccc2NC1=O` (stereo not given), the GI50 in [1] was 3150 nM (inactive); in test [2], 7730 nM (inactive); in [3], 12700 nM; in [4], 12700 nM (inactive); in test [5] it was 3660 nM (inactive); in [6], 3810 nM (inactive). In addition, the GI50 in test [7] is 4080 nM (inactive); in [8], 24300 nM (inactive); in test [9], 8670 nM (inactive); in [10] it was 18700 nM (inactive); in test [11] it was 14500 nM (inactive); in [12], 11400 nM (inactive). Moreover, the GI50 in test [13] was 5830 nM (inactive); in test [14] it was 11600 nM (inactive); in test [15], 11500 nM (inactive); in [16] it was 9230 nM (inactive); in test [17], 14000 nM (inactive); in [18], 6430 nM (inactive). The GI50 is 2740 nM (inactive) in test [19] and 3970 nM (inactive) in test [20].
As for `CN(C)C(=S)NC(=S)Nc1ccc2ccccc2c1`, the GI50 was 5690 nM (inactive) in test [1]; 13700 nM (inactive) in [2]; 9890 nM in test [3]; 18200 nM (inactive) in test [4]; 5560 nM (inactive) in test [5]; 10300 nM (inactive) in [6]. The GI50 in test [7] is 12300 nM (inactive); in [8], 13800 nM (inactive); in test [9] it was 12700 nM (inactive); in [10], 24700 nM (inactive); in test [11], 12100 nM (inactive); in test [12] it was 14400 nM (inactive). Also, the GI50 in test [13] was 12800 nM (inactive); in [14], 13900 nM (inactive); in test [15], 12000 nM (inactive); in test [16], 22700 nM (inactive); in test [17], 14100 nM (inactive); in [18], 804 nM (active). For the same compound, the figures for the GI50 in test [19] and in test [20] were 3940 nM (inactive) and 14400 nM (inactive), respectively.
As to `O=C1CC(NC2CC(=O)c3c(Br)sc(Br)c32)c2c(Br)sc(Br)c21` (stereo not given), the GI50 in test [1] is 2460 nM (inactive); in [2] it was 3040 nM (inactive); in [3], 2940 nM; in test [4], 4580 nM (inactive); in test [5] it was 597 nM (active); in [6], 2810 nM (inactive). The GI50 is 14900 nM (inactive) in test [7]; 2290 nM (inactive) in test [8]; 5580 nM (inactive) in test [9]; 8510 nM (inactive) in [10]; 17400 nM (inactive) in test [11]; 2990 nM (inactive) in [12]. In addition, the GI50 was 1510 nM (inactive) in test [13]; 3630 nM (inactive) in test [14]; 2840 nM (inactive) in test [15]; 2880 nM (inactive) in test [16]; 3000 nM (inactive) in test [17]; 998 nM (active) in [18]. Also, the GI50 is 18000 nM (inactive) in [19] and 4440 nM (inactive) in test [20].
Regarding `O=C1c2cccc3cc([N+](=O)[O-])cc(c23)C(=O)N1CCCN1CCN(CCCNc2ccc3ncn4c5ccccc5c(=O)c2c34)CC1`, the GI50 in test [1] was < 5 nM (active); in [2] it was < 5 nM (active); in [3] it was < 5 nM; in [4] it was < 5 nM (active); in [5] it was < 5 nM (active); in test [6] it was < 5 nM (active). For the same compound, the GI50 in [7] was < 5 nM (active); in test [8] it was < 5 nM (active); in test [9], < 5 nM (active); in [10], 5.47 nM (active); in test [11], < 5 nM (active); in [12] it was < 5 nM (active). Moreover, the GI50 in test [13], in [14], in [15], in test [16], in test [17] and in [18] was < 5 nM (active) each time. Besides, the GI50 in test [19] is < 5 nM (active); in [20], 35.8 nM (active).
